Measurements as given in patent US20230365541A1, “INHIBITOR OF ENHANCER OF ZESTE HOMOLOGUE 2, AND USE THEREOF” (HAISCO PHARMACEUTICALS PTE. LTD., priority 2020, published 2023).

Key:
SU-DHL-6 cells = assay: SU-DHL-6 cell proliferation test; format: cell-based, human; details: incubated for 14 days
Description: SU-DHL-6 cells are human B-cell lymphoma cell lines purchased from ATCC and cultured under the following conditions: RPMI-1640+10% FBS+1% double antibody in a 37° C., 5% CO2 incubator. The cells were plated in a 12-well plate, with a cell concentration of 1×10^5 cells/mL. After the cells were plated, the compounds at different concentrations were added and cultured in a 37° C., 5% CO2 incubator. The cells were counted every 3-4 days (Countstar automated cell counter), centrifuged to remove the supernatant, re-diluted to 1×10^5 cells/mL and plated, and then the compounds at different concentrations were further added. After the mixture was incubated for 14 days and the cells were counted, the test was terminated, and the IC50 values were calculated by using the Origen9.2 software.

EZH2 = EZH2 (Homo sapiens (Human), UniProt Q15910); assay: Test method for EZH2 enzyme activity; format: biochemical; details: H3K27(21-44) and [3H]-SAM
Outline: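 EZH2 (3 nM final) preincubated 15 min with compound in Tris-HCl pH 9.0 buffer, then H3K27(21-44) peptide and [3H]-SAM added (mixture at 200 nM and 100 nM) for 60 min at room temperature. Reaction quenched with cold SAM; flashplate scintillation read, inhibition normalized to controls and IC50 fitted.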

[1] = Pharmacokinetic experiment in mice (single intragastric dose, 20 mg/kg); details: male, ICR, mouse, plasma, po
Description: (§2) Experimental objective: a single dose of test compounds was administered to ICR mice intragastrically, and the concentrations of the test compounds in plasma of the mice were measured to evaluate pharmacokinetic characteristics of the test compounds in the mice.
(§3) Experimental animal: male ICR mice, about 20-25 g, 6-8 weeks old, 3 mice/compound, purchased from Chengdu Dossy Experimental Animals Co., Ltd.
(§4) Experimental method: on the day of the experiment, three ICR mice were randomly grouped according to their body weight. The animals were fasted with water available for 12 to 14 hours one day before the administration, and were fed 4 hours after the administration.
(§5) Before and after the administration, 0.03 mL of blood was taken from the orbit of the animals under isoflurane anesthesia, and placed in an EDTAK2 centrifuge tube. Centrifugation was carried out at 5000 rpm at 4° C. for 10 min, and the plasma was collected.
(§6) Time points for sample collection comprise 0 (before the administration), 15 min, 30 min, 1 h, 2 h, 4 h, 6 h, 8 h and 24 h.
(§7) Before analysis and detection, all samples were stored at −80° C.

[2] = Pharmacokinetic experiment in mice (intravenous 5 mg/kg or intragastric 30 mg/kg); format: in vivo; details: for AUC: read-out: AUC; for C0: read-out: C0; for bioavailability: PO 30 mg/kg vs IV 5 mg/kg; for Tmax: read-out: Tmax
Description: The administration was performed according to table 5.
The concentrations of the compounds in EDTA-K2 anticoagulant plasma were determined by the LC-MS/MS method. The linear range of the standard curve of the compounds is 2-2000 ng/mL. After subjected to precipitating proteins with acetonitrile, the samples were analyzed by LC-MS/MS. The standard curve was subjected to a regression calculation using the weighted least square method (W=1/X^2), and quantified by calculating the ratio of test compound peak area to internal standard peak area.
• (1) except to the blank sample, 400 μL of internal standard working solution (Verapamil internal standard concentration in precipitant acetonitrile is 10.0 ng/mL) was added to a 1.5 mL centrifuge tube containing 30 μL of standard curve samples and quality control samples; • 200 μL of internal standard working solution (Verapamil internal standard concentration in precipitant acetonitrile is 10.0 ng/mL) was added to a 1.5 mL centrifuge tube containing 15 μL of unknown samples; • and 400 μL of acetonitrile was added to the blank sample; • (2) the mixture was mixed evenly for about 1 min in a vortex mixer; • (3) centrifugation was carried out at 10000 rpm at 4C for 10 mi; • (4) 175 μL of the supernatant was transferred to a new 96-well polypropylene plate, and then the plate was sealed and placed in a 10° C. sample tray for injection.

[3] = Pharmacokinetic experiment in monkeys; format: in vivo; details: male, cynomolgus monkey, plasma
Description: Experimental animal: twelve cynomolgus monkeys, 2.4-5.9 kg, male, 3-5.5 years old, purchased from Suzhou Xishan Zhongke Laboratory Animal Co., Ltd, with the production license number of SCXK(SU) 2018-0001.
Before and after the administration, 1.0 mL of blood was taken from the front and rear limb veins of the animals, and placed in an EDTAK2 centrifuge tube. […] Before analysis and detection, all plasma samples were stored at −80° C.

CYP2D6 = CYP2D6 (Homo sapiens (Human), UniProt P10635); assay: Cytochrome P450 isozyme inhibition experiment, CYP2D6; format: in vitro ADME; details: human liver microsomes
Description: (§1) Experimental objective: the inhibitory effects of test compounds on the activity of human liver microsomal cytochrome P450 isozymes (CYP1A2, CYP2C9, CYP2C19, CYP2D6 and CYP3A4) were determined. […]

CYP2C9 = CYP2C9 (Homo sapiens (Human), UniProt P11712); assay: Cytochrome P450 isozyme inhibition experiment, CYP2C9; format: in vitro ADME; details: human liver microsomes
Description: as §1

CYP1A2 = CYP1A2 (Homo sapiens (Human), UniProt P05177); assay: Cytochrome P450 isozyme inhibition experiment, CYP1A2; format: in vitro ADME; details: human liver microsomes
Description: as §1

CYP2C19 = CYP2C19 (Homo sapiens (Human), UniProt P33261); assay: Cytochrome P450 isozyme inhibition experiment, CYP2C19; format: in vitro ADME; details: human liver microsomes
Description: as §1

CYP3A4 = CYP3A4 (Homo sapiens (Human), UniProt P08684); assay: Cytochrome P450 isozyme inhibition experiment, CYP3A4; format: in vitro ADME; details: human liver microsomes, CYP3A4-M
Description: as §1

[4] = mouse, in vivo, po, 20 mg/kg
Description: as §2, §3, §4, §5, §6, §7

[5] = male, ICR, mouse, plasma, iv, 5 mg/kg, IV 5 mg/kg
[6] = male, ICR, mouse, plasma, po, 30 mg/kg, PO 30 mg/kg
[7] = male, ICR, mouse, plasma, po, 30 mg/kg
[8] = male, ICR, mouse, plasma, po, 30 mg/kg, PO 30 mg/kg, read-out: Cmax

EZH2, sequence (Q15910 other isoform, or with tags, fused parts or gaps isoform Q15910-2): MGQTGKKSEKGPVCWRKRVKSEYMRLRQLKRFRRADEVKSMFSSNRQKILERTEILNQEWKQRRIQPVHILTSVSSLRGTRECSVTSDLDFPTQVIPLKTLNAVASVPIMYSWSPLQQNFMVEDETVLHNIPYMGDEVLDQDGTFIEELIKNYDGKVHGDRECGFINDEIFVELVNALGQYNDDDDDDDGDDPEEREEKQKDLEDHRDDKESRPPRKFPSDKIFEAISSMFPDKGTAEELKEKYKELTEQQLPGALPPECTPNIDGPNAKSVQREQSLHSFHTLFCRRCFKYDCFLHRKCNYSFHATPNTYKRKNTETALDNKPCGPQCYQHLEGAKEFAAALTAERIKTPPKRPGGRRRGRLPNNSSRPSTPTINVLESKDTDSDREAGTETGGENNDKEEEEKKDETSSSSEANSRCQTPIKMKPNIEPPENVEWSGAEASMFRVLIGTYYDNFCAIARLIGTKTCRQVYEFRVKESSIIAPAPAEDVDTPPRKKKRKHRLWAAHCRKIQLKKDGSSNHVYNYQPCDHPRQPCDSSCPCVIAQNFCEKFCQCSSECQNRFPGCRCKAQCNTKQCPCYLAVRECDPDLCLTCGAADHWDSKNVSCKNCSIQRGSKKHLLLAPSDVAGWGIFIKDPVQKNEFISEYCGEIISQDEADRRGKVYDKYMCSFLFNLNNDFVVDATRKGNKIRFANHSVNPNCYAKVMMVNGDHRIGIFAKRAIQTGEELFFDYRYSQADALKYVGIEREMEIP
EZH2, sequence (O75530 2-441 partner): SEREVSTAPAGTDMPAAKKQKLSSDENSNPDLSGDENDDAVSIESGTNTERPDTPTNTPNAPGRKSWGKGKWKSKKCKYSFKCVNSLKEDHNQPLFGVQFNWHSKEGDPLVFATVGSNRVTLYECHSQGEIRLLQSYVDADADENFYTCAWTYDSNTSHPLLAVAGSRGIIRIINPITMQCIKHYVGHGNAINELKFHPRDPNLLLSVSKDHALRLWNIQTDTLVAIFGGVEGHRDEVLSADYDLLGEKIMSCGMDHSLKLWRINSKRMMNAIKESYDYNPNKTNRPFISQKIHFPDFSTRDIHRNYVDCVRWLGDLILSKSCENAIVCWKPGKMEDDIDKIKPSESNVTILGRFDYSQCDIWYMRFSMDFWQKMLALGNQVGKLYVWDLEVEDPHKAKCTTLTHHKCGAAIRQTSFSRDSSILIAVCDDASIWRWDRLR
EZH2, sequence (Q15022 2-739 partner): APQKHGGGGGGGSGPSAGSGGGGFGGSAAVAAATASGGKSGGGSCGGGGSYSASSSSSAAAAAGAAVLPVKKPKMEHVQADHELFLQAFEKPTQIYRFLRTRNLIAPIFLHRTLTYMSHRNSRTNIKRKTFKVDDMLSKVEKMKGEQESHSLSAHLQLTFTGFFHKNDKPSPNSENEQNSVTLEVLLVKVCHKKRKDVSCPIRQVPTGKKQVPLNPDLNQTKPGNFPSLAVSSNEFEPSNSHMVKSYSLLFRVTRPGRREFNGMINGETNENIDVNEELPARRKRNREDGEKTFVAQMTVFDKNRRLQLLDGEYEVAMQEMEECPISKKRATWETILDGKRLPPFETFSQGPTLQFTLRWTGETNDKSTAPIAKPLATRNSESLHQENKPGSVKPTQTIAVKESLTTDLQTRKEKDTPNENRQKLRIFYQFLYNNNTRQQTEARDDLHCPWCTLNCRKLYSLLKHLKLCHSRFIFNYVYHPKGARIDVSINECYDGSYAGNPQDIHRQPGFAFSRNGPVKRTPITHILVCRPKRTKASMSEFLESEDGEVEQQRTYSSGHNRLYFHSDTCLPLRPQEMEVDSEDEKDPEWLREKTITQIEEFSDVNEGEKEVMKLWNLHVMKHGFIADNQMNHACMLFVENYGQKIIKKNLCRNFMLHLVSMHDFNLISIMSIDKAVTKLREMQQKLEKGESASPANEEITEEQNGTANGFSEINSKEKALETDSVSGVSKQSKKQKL
EZH2, sequence (Q09028 2-425 partner): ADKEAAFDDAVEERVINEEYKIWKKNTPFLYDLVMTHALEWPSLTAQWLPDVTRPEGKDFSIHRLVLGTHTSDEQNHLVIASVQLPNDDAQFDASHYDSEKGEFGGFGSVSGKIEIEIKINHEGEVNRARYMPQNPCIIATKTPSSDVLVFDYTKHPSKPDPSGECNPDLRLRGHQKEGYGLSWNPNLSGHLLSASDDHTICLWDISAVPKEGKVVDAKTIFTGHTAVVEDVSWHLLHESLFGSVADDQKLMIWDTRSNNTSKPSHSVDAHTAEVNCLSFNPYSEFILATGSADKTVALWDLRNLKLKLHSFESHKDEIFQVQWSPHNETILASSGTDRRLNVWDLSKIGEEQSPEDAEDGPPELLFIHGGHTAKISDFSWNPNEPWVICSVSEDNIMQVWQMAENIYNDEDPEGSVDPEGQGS
EZH2, sequence (Q6ZN18 whole entry partner): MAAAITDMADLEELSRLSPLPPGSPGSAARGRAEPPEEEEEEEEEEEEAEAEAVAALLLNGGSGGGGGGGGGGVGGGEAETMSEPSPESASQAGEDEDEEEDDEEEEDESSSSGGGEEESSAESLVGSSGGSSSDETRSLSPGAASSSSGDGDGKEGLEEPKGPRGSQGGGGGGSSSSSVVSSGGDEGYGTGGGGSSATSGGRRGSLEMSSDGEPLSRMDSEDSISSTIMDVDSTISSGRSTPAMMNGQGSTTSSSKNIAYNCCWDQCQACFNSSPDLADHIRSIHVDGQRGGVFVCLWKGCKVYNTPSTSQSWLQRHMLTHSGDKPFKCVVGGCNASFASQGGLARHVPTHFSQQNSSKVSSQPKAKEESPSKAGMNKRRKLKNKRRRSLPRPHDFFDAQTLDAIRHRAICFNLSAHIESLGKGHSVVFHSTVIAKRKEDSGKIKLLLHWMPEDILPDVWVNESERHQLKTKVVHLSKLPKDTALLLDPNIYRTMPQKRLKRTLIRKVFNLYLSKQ
CYP1A2, sequence (P05177 whole entry): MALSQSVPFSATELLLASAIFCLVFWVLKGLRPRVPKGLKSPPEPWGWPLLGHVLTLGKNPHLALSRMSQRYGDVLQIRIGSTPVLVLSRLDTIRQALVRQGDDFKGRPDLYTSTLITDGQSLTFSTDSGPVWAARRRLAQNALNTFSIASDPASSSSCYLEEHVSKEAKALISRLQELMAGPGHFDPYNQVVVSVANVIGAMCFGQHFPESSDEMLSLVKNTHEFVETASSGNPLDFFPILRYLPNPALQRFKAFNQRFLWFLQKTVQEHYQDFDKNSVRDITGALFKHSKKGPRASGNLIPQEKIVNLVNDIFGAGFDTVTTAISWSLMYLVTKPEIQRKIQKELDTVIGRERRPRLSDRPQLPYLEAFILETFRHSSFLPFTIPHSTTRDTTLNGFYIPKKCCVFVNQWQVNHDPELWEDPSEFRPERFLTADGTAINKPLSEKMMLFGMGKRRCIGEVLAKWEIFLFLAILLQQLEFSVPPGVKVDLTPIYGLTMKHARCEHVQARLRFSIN
CYP2D6, sequence (P10635 whole entry): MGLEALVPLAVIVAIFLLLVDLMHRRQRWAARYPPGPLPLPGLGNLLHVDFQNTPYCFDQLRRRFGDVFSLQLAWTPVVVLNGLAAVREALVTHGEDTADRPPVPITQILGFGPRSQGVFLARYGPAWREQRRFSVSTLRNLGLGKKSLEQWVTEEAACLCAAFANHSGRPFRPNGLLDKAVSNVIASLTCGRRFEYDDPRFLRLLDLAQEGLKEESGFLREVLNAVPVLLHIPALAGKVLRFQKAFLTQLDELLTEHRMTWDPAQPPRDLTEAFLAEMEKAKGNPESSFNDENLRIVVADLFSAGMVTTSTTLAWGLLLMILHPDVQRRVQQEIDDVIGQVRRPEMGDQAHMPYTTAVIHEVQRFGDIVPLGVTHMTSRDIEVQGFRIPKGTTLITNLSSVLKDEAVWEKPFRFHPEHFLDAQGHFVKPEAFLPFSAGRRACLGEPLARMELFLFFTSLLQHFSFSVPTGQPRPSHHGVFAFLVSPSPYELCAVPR
CYP2C9, sequence (P11712 whole entry): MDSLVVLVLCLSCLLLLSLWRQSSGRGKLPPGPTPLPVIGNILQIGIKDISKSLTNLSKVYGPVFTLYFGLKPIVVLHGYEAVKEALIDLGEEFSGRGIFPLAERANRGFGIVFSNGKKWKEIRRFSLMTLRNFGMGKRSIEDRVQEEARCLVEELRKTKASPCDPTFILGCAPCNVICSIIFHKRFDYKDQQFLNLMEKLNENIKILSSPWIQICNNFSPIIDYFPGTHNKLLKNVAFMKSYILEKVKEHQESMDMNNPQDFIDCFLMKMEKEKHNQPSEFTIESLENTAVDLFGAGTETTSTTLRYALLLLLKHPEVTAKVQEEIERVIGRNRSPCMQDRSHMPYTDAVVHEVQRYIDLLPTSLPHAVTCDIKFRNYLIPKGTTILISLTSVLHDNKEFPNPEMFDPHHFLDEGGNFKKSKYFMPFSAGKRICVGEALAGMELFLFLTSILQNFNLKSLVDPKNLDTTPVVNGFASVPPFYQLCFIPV
CYP3A4, sequence (P08684 whole entry): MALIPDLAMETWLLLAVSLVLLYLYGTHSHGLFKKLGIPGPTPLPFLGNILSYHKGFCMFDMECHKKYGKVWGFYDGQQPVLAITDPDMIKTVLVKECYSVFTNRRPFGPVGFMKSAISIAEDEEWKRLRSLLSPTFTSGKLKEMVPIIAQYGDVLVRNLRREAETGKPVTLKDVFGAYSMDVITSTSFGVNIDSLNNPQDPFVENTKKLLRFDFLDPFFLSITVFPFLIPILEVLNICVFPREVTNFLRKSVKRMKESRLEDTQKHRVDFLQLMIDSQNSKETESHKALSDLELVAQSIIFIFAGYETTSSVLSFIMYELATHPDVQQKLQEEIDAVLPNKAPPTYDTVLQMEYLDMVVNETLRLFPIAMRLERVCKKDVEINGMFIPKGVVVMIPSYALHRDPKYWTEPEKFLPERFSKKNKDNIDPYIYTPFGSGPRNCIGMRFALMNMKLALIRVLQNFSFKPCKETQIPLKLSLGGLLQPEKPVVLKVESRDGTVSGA

Row | Compound | IC50 (SU-DHL-6 cells; Homo sapiens, SU-DHL-6, 336 h) | IC50 (EZH2) | AUC [2, 5] | C0 [2, 5] | half-life [2, 6] | bioavailability [2, 7] | AUC [2, 6] | IC50 (CYP2D6) | IC50 (CYP2C9) | IC50 (CYP1A2) | IC50 (CYP2C19) | IC50 (CYP3A4) | half-life [2, 5] | Cmax [2, 8] | Tmax [2, 6] | further results
1 | CSc1cc(C)[nH]c(=O)c1CNC(=O)c1cc(Cl)c2c(c1C)OC(C)(C1CCN(CC3CC(F)(F)C3)CC1)O2 (single isomer, unassigned; isomer 1) [Compound 10, isomer 1, 7-chloro-2-(1-((3,3-difluorocyclobutyl)methyl)piperidin-4-yl)-2,4-dimethyl-N-((6-methyl-4-(methylthio)-2-oxo-1,2-dihydropyridin-3-yl)methyl)benzo[d][1,3]dioxole-5-carboxamide] | – | – | – | – | – | – | – | – | – | – | – | – | – | – | – | Conclusion on pharmacokinetics [4]: Conclusion: the compounds of the present disclosure, especially isomer 1 of compound 10 and isomer 1 of compound 34, have good pharmacokinetics with long half-life and short time to reach the highest concentration.; Curve area AUC [4]: 1097 h · ng · mL − 1; Half-life T1/2 [4]: 1.72 h; Plasma drug concentration Cmax [4]: 1238 ng/mL; Time to reach peak Tmax [4]: 0.25
2 | [2H]C([2H])(NC(=O)c1cc(Cl)c2c(c1C)OC(C)(C1CCN(CC3CC3)CC1)O2)c1c(SC)cc(C)[nH]c1=O (stereo not drawn) [Compound 27, 7-chloro-2-(1-(cyclopropylmethyl)piperidin-4-yl)-2,4-dimethyl-N-((6-methyl-4-(methylthio)-2-oxo-1,2-dihydropyridin-3-yl)methyl-d2)benzo[d][1,3]dioxole-5-carboxamide] | 93.7 nM | 0.52 nM | 839 ng·h/mL | 1970 ng/mL | 0.934 h | 52.7% | 2650 ng·h/mL | – | – | – | – | – | 1.42 h | 865 ng/mL | 2 h | –
3 | Cc1cc(C)c(CNC(=O)c2cc(Cl)c3c(c2C)O[C@@](C)([C@H]2CC[C@H](N(C)C)CC2)O3)c(=O)[nH]1 [Compound I-2, Valemetostat, reference compound] | – | – | 1180 ng·h/mL | 2140 ng/mL | 3.05 h | 9.08% | 645 ng·h/mL | > 50000 nM | > 50000 nM | > 50000 nM | > 50000 nM | 16300 nM | 6.31 h | 262 ng/mL | 0.25 h | –

Further lines, with some results ahead:

Row | IC50 (SU-DHL-6 cells; Homo sapiens, SU-DHL-6, 336 h) | IC50 (EZH2) | AUC [2, 5] | C0 [2, 5] | half-life [2, 6] | bioavailability [2, 7] | AUC [2, 6] | IC50 (CYP2D6) | IC50 (CYP2C9) | IC50 (CYP1A2) | IC50 (CYP2C19) | IC50 (CYP3A4) | half-life [2, 5] | Cmax [2, 8] | Tmax [2, 6] | Compound | further results
4 | 33 nM | 0.57 nM | – | – | – | – | – | – | – | – | – | – | – | – | – | CSc1cc(C)[nH]c(=O)c1CNC(=O)c1cc(Cl)c2c(c1C)OC(C)([C@H]1CC[C@@H](N[C@H]3C[C@H](F)C3)CC1)O2 (single isomer, unassigned) [Compound 34, isomer 1, 7-chloro-2-(4-((trans-3-fluorocyclobutyl)amino)cyclohexyl)-2,4-dimethyl-N-((6-methyl-4-(methylthio)-2-oxo-1,2-dihydropyridin-3-yl)methyl)benzo[d][1,3]dioxole-5-carboxamide] | AUC [1]: 1350 ng·h/mL; Cmax [1]: 598 ng/mL; half-life [1]: 3.37 h
5 | 24 nM | 0.48 nM | 574 ng·h/mL | 2340 ng/mL | 1.27 h | 44.3% | 1530 ng·h/mL | – | – | – | – | – | – | – | – | [2H]C([2H])(NC(=O)c1cc(Cl)c2c(c1C)OC(C)([C@H]1CC[C@@H](NC3CC(F)(F)C3)CC1)O2)c1c(SC)cc(C)[nH]c1=O (single isomer, unassigned) [Compound 44, isomer 1, 7-chloro-2-(4-((3,3-difluorocyclobutyl)amino)cyclohexyl)-2,4-dimethyl-N-((6-methyl-4-(methylthio)-2-oxo-1,2-dihydropyridin-3-yl)methyl-d2)benzo[d][1,3]dioxole-5-carboxamide] | T1/2 ([2]; ICR mice, IV 5 mg/kg, listed as Compound 44, Isomer 1): 0.427 h; Cmax ([2]; ICR mice, PO 30 mg/kg, listed as Compound 44, Isomer 1): 971 ng/mL
6 | – | 0.44 nM | – | – | – | – | – | > 50000 nM | > 50000 nM | > 50000 nM | > 50000 nM | > 50000 nM | – | – | – | [2H]C([2H])(NC(=O)c1cc(Cl)c2c(c1C)OC(C)(C1CCC(NC3COC3)CC1)O2)c1c(SC)cc(C)[nH]c1=O (single isomer, unassigned) [Compound 59, isomer 2, 7-chloro-2,4-dimethyl-N-((6-methyl-4-(methylthio)-2-oxo-1,2-dihydropyridin-3-yl)methyl-d2)-2-(4-(oxetan-3-ylamino)cyclohexyl)benzo[d][1,3]dioxole-5-carboxamide] | AUC ([3]; IV 3 mg/kg): 1570 ± 39 ng·h/mL; C0 ([3]; IV 3 mg/kg): 2960 ± 601 ng/mL; half-life ([3]; IV 3 mg/kg): 2.68 ± 0.14 h; AUC ([3]; PO 15 mg/kg): 3310 ± 526 ng·h/mL; Cmax ([3]; PO 15 mg/kg): 2320 ± 562 ng/mL; Tmax ([3]; PO 15 mg/kg): 1 h; half-life ([3]; PO 15 mg/kg): 5.11 ± 0.32 h; bioavailability ([3]; PO 15 mg/kg vs IV 3 mg/kg): 42.1 ± 6.7%; IC50 (SU-DHL-6 cells): 6.35 nM
